Source: patent US7723328B2, “Methods of facilitating cell survival using neurotrophin mimetics” (The University of North Carolina at Chapel Hill, priority 2005, dated 2010)
Entries after “also recorded” stand apart in the source; their conditions may differ. Read-outs that look alike come from different tables or passages of the source.

Legend:
hippocampal neurons = assay: Hippocampal neuron survival with signaling pathway inhibitors; assay type: cell-based, mouse; settings: PD98059 50 μM; BDNF/NGF 25 ng/ml, compounds 5 nM; 48 h
Protocol: (§1) Hippocampal neurons were prepared from E16-17 mouse embryos as previously described (Yang. T. et al. (2003) J Neurosci 23, 3353-3363). […] For studies employing p75^NTR+/+ and p75^NTR−/− neurons, mice carrying a mutation in exon 3 of the p75^NTR gene (Lee, K. F. et al. (1992) Cell 69, 737-749) were bred onto a B6 congenic background (>10 B6 backcrosses).
(§2) After 48 hours in culture, cell survival was assessed as previously described (Longo, F. M., Manthorpe. M., Xie. Y. M., Varon, S. (1997) J Neurosci Res 48, 1-17) using a combination of standard morphological criteria along with visual determination of whether a given cell converted MTT to its blue formazan product. The number of surviving neurons was determined by counting the total number of cells in each well that were both morphologically intact and filed with blue product (Longo F. M., Manthorpe. M., Xie, Y. M., Varon, S. (1997) J Neurosci Res 48, 1-17). For each neurotrophin or compound concentration, duplicate wells were counted and the resulting values averaged. Activity of each compound was confirmed by blinded counts. Counts were normalized to survival achieved with 25 ng/ml BDNF or to baseline survival. Fitting of dose-responsive curves was performed with Sigmaplot obtained from SYSTAT Software Inc. (Richmond, Calif., United States of America).
(§3) For all studies applying signaling inhibitors, p75^NTR antibodies or p75^NTR−/− neurons, survival was assessed at 48 hours.

p75^NTR-Fc [1] = target: T1, p75^NTR-Fc (Homo sapiens, UniProt P08138); settings: read-out: KD for NGF, previous reports; Nykjaer et al. 2004; cited from earlier work
T1 construct: purchased R&D Systems
T1 sequence (P08138 with tags, fused parts or gaps limits assumed): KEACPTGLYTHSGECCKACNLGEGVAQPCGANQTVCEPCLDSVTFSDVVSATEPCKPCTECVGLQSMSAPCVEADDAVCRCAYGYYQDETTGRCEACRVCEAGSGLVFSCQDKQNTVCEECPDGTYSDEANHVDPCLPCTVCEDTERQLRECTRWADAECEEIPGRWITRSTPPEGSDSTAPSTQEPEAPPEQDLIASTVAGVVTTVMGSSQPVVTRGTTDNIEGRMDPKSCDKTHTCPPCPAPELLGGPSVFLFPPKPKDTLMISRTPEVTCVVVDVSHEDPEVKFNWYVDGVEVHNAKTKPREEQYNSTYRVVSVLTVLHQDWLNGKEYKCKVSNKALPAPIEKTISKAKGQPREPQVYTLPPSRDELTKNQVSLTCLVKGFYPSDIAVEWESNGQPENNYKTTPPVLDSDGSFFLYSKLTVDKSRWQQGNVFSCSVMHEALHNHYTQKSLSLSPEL

p75^NTR-Fc [2] = target: T1, p75^NTR-Fc; assay: NGF/p75NTR-Fc binding by NGF ELISA, Gaddum/Schild fit; settings: read-out: KD for NGF; in the absence of compounds
Protocol: Briefly, 96-well plates were incubated with 0.1 pmol (at 1 nM) of p75/Fc or TrkA/Fc recombinant protein obtained from R&D System (Minneapolis, Minn., United States of America) overnight at 4° C. followed by incubation with blocking buffer for 1 hour at room temperature. […] Plates were then washed five times with Tris-buffered saline (TBS) containing 0.05% Tween-20 and incubated with anti-NGF rabbit polyclonal antibody overnight at 4° C. Following five washes with TBS, wells were incubated for 2.5 hours at room temperature with anti-rabbit IgG HRP conjugate and washed five times. 3,3′,5,5′-tetramethyl-benzidine substrate was added and the optical density measured at 450 nm.
A regression analysis of NGF-p75^NTR binding in the presence of the p75-binding compounds was performed. The data was fit using the Nonlinear Regression module of Sigmaplot, to a modification of the Gaddum/Schild equation (adapted from Motulsky, H. J., and Christopoulos. A. (2003) A Practical Guide to Curve Fitting, 2nd edn. (San Diego, Calif., GraphPad Software, Inc.): […]

ERK42 = ERK42 activation western blot in hippocampal cultures; assay type: cell-based, mouse; settings: compounds 20 nM, BDNF/NGF 50 ng/ml; 10 and 30 min
Protocol: (§4) For assays of Trk, AKT, NFκB, and ERK activation, hippocampal neurons derived from E16-17 mice were cultured in poly-L-lysine coated six-well plates (Corning, Inc., Corning, N.Y., United States of America) in DMEM containing 10% FBS, followed by incubation in serum-free DMEM for 2 hours before addition of neurotrophins or compounds. At the indicated time points, neurons were harvested in lysis buffer consisting of: 20 mM Tris, pH 8.0, 137 mM NaCl, 1% Igepal CA-630, 10% glycerol, 1 mM PMSF, 10 μg/ml aprotinin, 1 μg/ml leupeptin, 500 μM orthovanadate (Zhou, J., Valletta, J. S., Grimes, M. L., Mobley, W. C. (1995) J Neurochem 65, 1146-1156).
(§5) Lysates were centrifuged, the supernatant collected, and protein concentrations determined using the BCA Protein Assay Reagent obtained from Pierce (Rockford, Ill., United States of America). Western blots were performed as described previously (Yang, T. et al. (2003) J Neurosci 23, 3353-3363). Western blot signals were detected using the ECL Chemiluminescence System obtained by Amersham (Piscataway, N.J., United States of America) (Yang, T. et al. (2003) J Neurosci 23, 3353-3363).

p75^NTR−/− cells = assay: Survival of p75NTR+/+ versus p75NTR-/- hippocampal neurons; assay type: cell-based, mouse; settings: neurotrophins 1.8 nM, compounds 5 nM
Protocol: as §1, §2, §3

E17 hippocampal neurons = assay: Aβ-induced death of hippocampal neurons; assay type: cell-based; settings: Aβ1-42 10 μM; NGF at 100 pg/ml
Protocol: Using previously well established protocols, Aβ was preincubated for 3 days in water to allow formation of oligomers. E17 hippocampal neurons were incubated for 5 days to allow for maturation prior to addition of Aβ with test compounds.

AKT = AKT activation western blot in hippocampal cultures; assay type: cell-based, mouse; settings: p75NTR−/− neurons, versus culture medium alone
Protocol: as §4, §5

TrkB = target: T2, TrkB (Mus musculus, UniProt P15209); assay: Trk Y490 phosphorylation western blot in hippocampal neuron cultures; assay type: cell-based; settings: 10 or 30 minutes
T2 construct: endogenous in cells; host or cells: primary hippocampal neurons from E16-17 mouse embryos
T2 sequence (P15209 32-821): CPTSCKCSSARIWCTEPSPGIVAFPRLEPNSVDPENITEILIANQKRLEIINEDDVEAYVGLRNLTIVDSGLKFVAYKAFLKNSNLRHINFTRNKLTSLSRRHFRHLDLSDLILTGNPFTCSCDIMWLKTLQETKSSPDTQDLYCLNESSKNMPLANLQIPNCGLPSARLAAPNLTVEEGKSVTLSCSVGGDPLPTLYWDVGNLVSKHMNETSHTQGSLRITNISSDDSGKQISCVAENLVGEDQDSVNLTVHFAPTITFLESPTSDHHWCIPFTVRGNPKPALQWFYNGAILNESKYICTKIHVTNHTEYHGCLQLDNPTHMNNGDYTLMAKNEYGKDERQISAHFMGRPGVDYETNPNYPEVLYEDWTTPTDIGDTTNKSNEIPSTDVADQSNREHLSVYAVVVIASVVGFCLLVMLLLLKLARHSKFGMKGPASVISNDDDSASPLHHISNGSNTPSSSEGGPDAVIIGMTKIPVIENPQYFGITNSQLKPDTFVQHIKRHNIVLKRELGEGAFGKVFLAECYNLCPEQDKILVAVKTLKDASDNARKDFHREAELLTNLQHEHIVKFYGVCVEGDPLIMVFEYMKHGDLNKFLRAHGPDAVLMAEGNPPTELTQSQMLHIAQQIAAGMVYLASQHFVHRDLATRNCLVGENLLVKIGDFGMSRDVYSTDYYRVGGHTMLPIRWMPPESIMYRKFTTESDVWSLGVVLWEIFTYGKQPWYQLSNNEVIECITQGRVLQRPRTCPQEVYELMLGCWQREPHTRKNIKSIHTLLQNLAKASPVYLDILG
Protocol: as §4, §5

Kd (p75^NTR-Fc [2]): 0.8 to 0.9 nM | TrkB activation (Trk Y490 phosphorylation) (TrkB): no activation was detected
Substance: NGF: Recombinant human NGF obtained from Invitrogen
effect of PD98059 (ERK inhibitor) on survival promoted by the substance (hippocampal neurons): small but significant effect; also recorded: small effects | Kd (p75^NTR-Fc [1]): ~1 nM | ERK42 activation (ERK42): greater with BDNF and NGF treatment than with the p75-binding compounds | effect of p75NTR-deficiency on promotion of neuron survival by the substance (p75^NTR−/− cells): lack of response; also recorded: completely inhibits | protection against Aβ1-42-induced death (E17 hippocampal neurons): fails to protect; also recorded: did not protect | AKT activation in p75NTR−/− cells (AKT): completely absent
